Results from patent publication US7169789B2 (Kirin Beer Kabushiki Kaisha, priority 1999, dated 2007).
Read-outs that look alike come from different tables or passages of the source.

Tests used:
[1] = test system: activation of MAPK within vascular endothelial cells induced by VEGF stimulation; experiment: Inhibitory activity against activation of MAPK within vascular endothelial cells induced by VEGF stimulation; assay type: cell-based; details: human funicular venous vascular endothelial cells, VEGF 50 ng/ml, phosphorylated MAPK by immunoblotting
Summary of the method: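 Serum-starved (0.5% FCS, 24 h) human umbilical vein endothelial cells pretreated with compound 1 h at 37 °C, then stimulated with 50 ng/ml recombinant human VEGF for 8 min.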

[2] = test system: A375 human melanoma cells; experiment: Karyomorphosis test; assay type: cell-based; details: test compound 10 μM and 1 μM, 48 hr, nuclei stained with propidium iodide
Method: A375 human melanoma cells (2×10^4) (obtained from Japanese Foundation for Cancer Research) were incolulated on a culture slide (manufactured by Falcon) and were cultured at 37° C. After the elapse of 5 hr from the initiation of the cultivation, the test compound was added to 10 μM and 1 μM, and the cultivation was continued for additional 48 hr. After the fixation of cells, 50 μg/ml propidium iodide solution containing ribonuclease (200 μg/ml) was added to stain nuclei. The stained nuclei were observed under a fluorescent microscope to analyze the nuclei for abnormality of karyomorphosis.

[3] = test system: Human glioma cells GL07; experiment: Antitumor effect on human glioma cells (GL07) transplanted into nude mice; assay type: in vivo; details: 20 mg/kg once a day for 9 days; for inhibition in vivo at 20 mg/kg: Mus musculus, Glioma cell, 216 h, read-out: TGIR, % (tumor growth inhibition rate)
Summary of the method: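 GL07 xenografts in nude mice, grouped (n=4) at ~100 mm^3 tumor volume. Test compound 20 mg/kg p.o. or i.p. once daily for 9 days; vehicle controls. TGIR = (1−Tx/Cx)×100 from tumor volumes normalized to day-of-start volume = 1.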

Row | Compound | IC50 ([1]; Endothelial cell) [nM] | IC50 [1] [nM] | Change in morphosis [2] | inhibition in vivo at 20 mg/kg ([3]; ip, GL07, intraperitoneal) [%] | inhibition in vivo at 20 mg/kg ([3]; GL07, oral) [%] | TGIR, % (tumor growth inhibition rate) ([3]; GL07, intraperitoneal) [%] | TGIR, % (tumor growth inhibition rate) ([3]; GL07, oral) [%]
1 | CCCNC(=O)Nc1ccc(Oc2ccnc3cc(OC)c(OC)cc23)cc1Cl [Example 13, N-{2-chloro-4-[(6,7-dimethoxy-4-quinolyl)oxy]-phenyl}-N′-propylurea] | 2.2 |  | (−) (the change in karyomorphosis of cells did not take place at 10 μM) | 52 |  |  | 
2 | COc1ccccc1NC(=O)Nc1ccc(Oc2ccnc3cc(OC)c(OC)cc23)cc1Cl [Example 18, N-{2-Chloro-4-[(6,7-dimethoxy-4-quinolyl)oxy]phenyl}-N′-(2-methoxyphenyl)urea] | 0.6 |  | (−) (the change in karyomorphosis of cells did not take place at 10 μM) |  | 57 |  | 
3 | COc1cc2nccc(Oc3ccc(NC(=O)Nc4ccc(F)cc4C)c(C)c3C)c2cc1OC [Example 25, N-{4-[(6,7-Dimethoxy-4-guinolyl)oxy]-2,3-dimethylphenyl}-N′-(4-fluoro-2-methylphenyl)urea] |  | 3.9 | (−) (the change in karyomorphosis of cells did not take place at 10 μM) |  |  | 68 | 
4 | COc1cc2nccc(Oc3ccc(NC(=O)Nc4ccc(Cl)cn4)c(Cl)c3)c2cc1OC [Example 16, N-{2-Chloro-4-[(6,7-dimethoxy-4-quinolyl)oxy]phenyl}-N′-(5-chloro-2-pyridyl)urea] | 2.9 |  | (−) (the change in karyomorphosis of cells did not take place at 10 μM) | 77 |  |  | 
5 | COc1cc2nccc(Oc3ccc(NC(=O)Nc4ccc(F)cc4F)c(C)c3C)c2cc1OC [Example 24, N-(2,4-Difluorophenyl)-N′-{4-[(6,7-dimethoxy-4-guinolyl)oxy]-2,3-dimethylphenyl}urea] |  | 0.6 | (−) (the change in karyomorphosis of cells did not take place at 10 μM) |  |  |  | 63
6 | COc1cc2nccc(Oc3ccc(NC(=O)Nc4ccc(Br)cn4)c(Cl)c3)c2cc1OC [Example 17, N-(5-Bromo-2-pyridyl)-N′-{2-chloro-4-[(6,7-dimethoxy-4-guinolyl)oxy]phenyl}urea] |  | 11 | (−) (the change in karyomorphosis of cells did not take place at 10 μM) |  |  | 85 | 
7 | COc1cc2nccc(Oc3ccc(NC(=O)Nc4ccc(Br)cn4)c(C)c3C)c2cc1OC [Example 29, N-(5-Bromo-2-pyridyl)-N′-{4-[(6,7-dimethoxy-4-quinolyl)oxy]-2,3-dimethylphenyl}urea] | 4.4 |  | (−) (the change in karyomorphosis of cells did not take place at 10 μM) |  | 64 |  | 
8 | COc1cc2nccc(Oc3ccc(NC(=O)Nc4ccc(Cl)cn4)c(C)c3C)c2cc1OC [Example 28, N-(5-Chloro-2-pyridyl)-N′-{4-[(6,7-dimethoxy-4-guinolyl)oxy]-2,3-dimethylphenyl}urea] |  | 4 | (−) (the change in karyomorphosis of cells did not take place at 10 μM) |  |  | 84 | 
9 | COc1cc2nccc(Oc3ccc(NC(=O)Nc4ccccn4)c(C)c3C)c2cc1OC [Example 33, N-{4-[(6,7-Dimethoxy-4-guinolyl)oxy]-2,3-dimethylphenyl}-N′-(2-pyridyl)urea] |  | 3.5 | (−) (the change in karyomorphosis of cells did not take place at 10 μM) |  |  |  | 
10 | COc1ccc(NC(=O)Nc2ccc(Oc3ccnc4cc(OC)c(OC)cc34)cc2Cl)cc1.Cl [Example 22, N-{2-Chloro-4-[(6,7-dimethoxy-4-quinolyl)oxy]phenyl}-N′-(4-methoxyphenyl)urea hydrochloride] | 0.4 |  | (−) (the change in karyomorphosis of cells did not take place at 10 μM) |  |  |  | 
11 | COc1cc2nccc(Oc3ccc(NC(=O)Nc4ccc(F)cc4C)c(Cl)c3)c2cc1OC [Example 14, N-{2-Chloro-4-[(6,7-dimethoxy-4-quinolyl)oxy]phenyl}-N′-(4-fluoro-2-methylphenyl)urea] | 0.7 |  | (−) (the change in karyomorphosis of cells did not take place at 10 μM) | 81 |  |  | 
12 | COc1cc2nccc(Oc3ccc(NC(=O)Nc4cccc(F)c4OC)c(C)c3C)c2cc1OC [Example 26, N-{4-[(6,7-Dimethoxy-4-guinolyl)oxy]-2,3-dimethylphenyl}-N′-(3-fluoro-2-methoxyphenyl)urea] |  | 5.3 | (−) (the change in karyomorphosis of cells did not take place at 10 μM) |  |  |  | 

More lines, main results first:

Row | IC50 ([1]; Endothelial cell) [nM] | IC50 [1] [nM] | Compound | Change in morphosis [2] | inhibition in vivo at 20 mg/kg ([3]; ip, GL07, intraperitoneal) [%] | inhibition in vivo at 20 mg/kg ([3]; GL07, oral) [%] | TGIR, % (tumor growth inhibition rate) ([3]; GL07, intraperitoneal) [%] | TGIR, % (tumor growth inhibition rate) ([3]; GL07, oral) [%]
13 | 0.5 |  | COc1cc2nccc(Oc3ccc(NC(=O)Nc4ccc(F)cc4F)c([N+](=O)[O-])c3)c2cc1OC [Example 48, N-(2,4-Difluorophenyl)-N′-{4-[(6,7-dimethoxy-4-quinolyl)oxy]-2-nitrophenyl}urea] | (−) (the change in karyomorphosis of cells did not take place at 10 μM) | 90 |  |  | 
14 | 16 |  | CCCNC(=O)Nc1ccc(Oc2ncnc3cc(OC)c(OC)cc23)cc1Cl [Example 62, N-{2-chloro-4-[(6,7-dimethoxy-4-quinazolinyl)-oxy]phenyl}-N′-propylurea] | (−) (the change in karyomorphosis of cells did not take place at 10 μM) |  | 78 |  | 
15 |  | 4 | CCCNC(=O)Nc1ccc(Oc2ccnc3cc(OC)c(OC)cc23)cc1[N+](=O)[O-] [Example 47, N-{4-[(6,7-Dimethoxy-4-guinolyl)oxy]-2-nitrophenyl}-N′-propylurea] | (−) (the change in karyomorphosis of cells did not take place at 10 μM) |  |  |  | 
16 |  | 4.4 | COc1cc2c(Oc3cc(C)c(NC(=O)Nc4ccc(F)cc4F)cc3C)ccnc2cc1OCCN1CCOCC1 [Example 52, N-(2,4-Difluorophenyl)-N′-(4-{[6-methoxy-7-(2-morpholinoethoxy)-4-guinolyl]oxy}-2,5-dimethylphenyl)urea] | (−) (the change in karyomorphosis of cells did not take place at 10 μM) |  |  |  | 
17 | 2.3 |  | COc1cc2nccc(Oc3cc(C)c(NC(=O)Nc4ccc(F)cc4F)cc3C)c2cc1OC [Example 37, N-(2,4-Difluorophenyl)-N′-{4-[(6,7-dimethoxy-4-quinolyl)oxy]-2,5-dimethylphenyl}urea] | (−) (the change in karyomorphosis of cells did not take place at 10 μM) | 70 |  |  | 
18 |  | 4.2 | COc1cc2nccc(Oc3ccc(NC(=O)Nc4ccc(C)cn4)c(C)c3C)c2cc1OC [Example 34, N-{4-[(6,7-Dimethoxy-4-guinolyl)oxy]-2,3-dimethylphenyl}-N′-(5-methyl-2-pyridyl)urea] | (−) (the change in karyomorphosis of cells did not take place at 10 μM) |  |  |  | 
19 |  | 5.9 | COc1cc2nccc(Oc3cc(C)c(NC(=O)Nc4ccccc4C)cc3C)c2cc1OC [Example 42, N-{4-[(6,7-Dimethoxy-4-guinolyl)oxy]-2,5-dimethylphenyl}-N′-(2-methylphenyl)urea] | (−) (the change in karyomorphosis of cells did not take place at 10 μM) |  |  |  | 
20 |  | 3.3 | COc1ccc(NC(=O)Nc2ccc(Oc3ccnc4cc(OC)c(OC)cc34)c(C)c2C)cc1 [Example 36, N-{4-[(6,7-Dimethoxy-4-guinolyl)oxy]-2,3-dimethylphenyl}-N′-(4-methoxyphenyl)urea] | (−) (the change in karyomorphosis of cells did not take place at 10 μM) |  |  |  | 
21 | 12 |  | COc1cc2nccc(Oc3cc(C)c(NC(=O)Nc4ccc(F)cc4C)cc3C)c2cc1OC [Example 40, N-{4-[(6,7-Dimethoxy-4-quinolyl)oxy]-2,5-dimethylphenyl}-N′-(4-fluoro-2-methylphenyl)urea] | (−) (the change in karyomorphosis of cells did not take place at 10 μM) |  |  |  | 
22 | 4.3 |  | COc1cc2nccc(Oc3c(Cl)cc(NC(=O)Nc4ccc(F)cc4F)cc3Cl)c2cc1OC [Example 49, N-{3,5-Dichloro-4-[(6,7-dimethoxy-4-quinolyl)oxy]phenyl}-N′-(2,4-difluorophenyl)urea] | (−) (the change in karyomorphosis of cells did not take place at 10 μM) |  |  |  | 
23 | 2.8 |  | COCCOc1cc2nccc(Oc3ccc(NC(=O)Nc4ccccc4OC)c(Cl)c3)c2cc1OC [Example 55, N-(2-Chloro-4-{[6-methoxy-7-(2-methoxyethoxy)-4-quinolyl]oxy}phenyl)-N′-(2-methoxyphenyl)urea] | (−) (the change in karyomorphosis of cells did not take place at 10 μM) |  |  |  | 
24 | 3.8 |  | COc1ccccc1NC(=O)Nc1cc(C)c(Oc2ccnc3cc(OC)c(OC)cc23)cc1C [Example 43, N-{4-[(6,7-Dimethoxy-4-quinolyl)oxy]-2,5-dimethylphenyl}-N′-(2-methoxyphenyl)urea] | (−) (the change in karyomorphosis of cells did not take place at 10 μM) |  |  |  | 
25 | 5.8 |  | COCCOc1cc2nccc(Oc3cc(C)c(NC(=O)Nc4ccccc4OC)cc3C)c2cc1OC [Example 59, N-(4-{[6-Methoxy-7-(2-methoxyethoxy)-4-quinolyl]oxy}-2,5-dimethylphenyl)-N′-(2-methoxyphenyl)-urea] | (−) (the change in karyomorphosis of cells did not take place at 10 μM) |  |  |  | 
